Like-named read-outs stand apart in the source and are kept apart here.
System: HIV-1 LAI envelope single-round infectious reporter virus
Test: Single-round infectious luciferase reporter virus infection of MT2 cells (HIV-1 LAI envelope)
Format: cell-based
Conditions: Human immunodeficiency virus 1, MT2, 72 h
From the text: Human embryonic Kidney cell line, 293T (HEK 293T), was propagated in Dulbecco's Modified Eagle Medium (Invitrogen, Carlsbad, Calif.) containing 10% fetal Bovine serum (FBS, Sigma, St. Louis, Mo.). The human T-cell leukemia cell MT2 (AIDS Research and Reference Reagent Program, Cat. 237) was propagated in RPMI 1640 (Invitrogen, Carlsbad, Calif.) containing 10% fetal bovine serum (FBS, Hyclone, Logan, Utah)
Single-round infectious reporter virus was produced by co-transfecting HEK 293T cells with plasmide expressing the HIV-1 LAI envelope along with a plasmid containing an HIV-1 LAI proviral cDNA with the envelope gene replaced by a firefly luciferase reporter gene (Chen et al, Ref 41). Transfections were performed using lipofectAMINE PLUS reagent as described by the manufacturer (Invitrogen, Carlsbad, Calif.).
• 1. MT2 cells were plated in black, 384 well plates at a cell density of 5×10^3 cells per well in 25 μl RPMI 1640 containing 10% FBS. • 2. Compound (diluted in dimethylsulfoxide and growth medium) was added to cells at 12.5 μl/well, so that the final assay concentration would be ≦50 nM. • 3. 12.5 μl of single-round infectious reporter virus in Dulbecco's Modified Eagle Medium was added to the plated cells and compound at an approximate multiplicity of infection (MOI) of 0.01, resulting in a final volume of 50 μl per well. • 4. Virus-infected cells were incubated at 37 degrees Celsius, in a CO2 incubator, and harvested 72 h after infection. • 5. Viral infection was monitored by measuring luciferase expression in the infected cells using a luciferase reporter gene assay kit (Steady-Glo, Promega, Madison, Wis.) as described by the manufacturer. Luciferase activity was then quantified by measuring luminescence using an EnVision Multilabel Plate Readers (PerkinElmer, Waltham, Mass.). • 6. The percent inhibition for each compound was calculated by quantifying the level of luciferase expression in cells infected in the presence of each compound as a percentage of that observed for cells infected in the absence of compound and subtracting such a determined value from 100. • 7. An EC50 provides a method for comparing the antiviral potency of the compounds of this disclosure. The effective concentration for fifty percent inhibition (EC50) was calculated with the Microsoft Excel Xlfit curve fitting software. For each compound, curves were generated from percent inhibition calculated at 10 different concentrations by using a four parameter logistic model (model 205). Table 1 is the key for the data in Table 2.

[1] = read-out: EC50 Group from Table 1

Row | SMILES | EC50 [1] [nM] | EC50 [nM]
1 | CN(C)C(=O)N1CC2CN(C(=O)C(=O)c3c[nH]c4c(-n5ccnn5)ncc(F)c34)CC2C1 (stereo not shown) [Compound 3001, 5-(2-(4-fluoro-7-(1H-1,2,3-triazol-1-yl)-1H-pyrrolo[2,3-c]pyridin-3-yl)-2-oxoacetyl)-N,N-dimethylhexahydropyrrolo[3,4-c]pyrrole-2(1H)-carboxamide] | < 500 | –
2 | O=C(C(=O)N1CC2CN(c3nnnn3-c3ccccc3)CC2C1)c1c[nH]c2c(-n3ccnn3)ncc(F)c12 (stereo not shown) [Compound 1001, 1-(4-fluoro-7-(1H-1,2,3-triazol-1-yl)-1H-pyrrolo[2,3-c]pyridin-3-yl)-2-(5-(1-phenyl-1H-tetrazol-5-yl)hexahydropyrrolo[3,4-c]pyrrol-2(1H)-yl)ethane-1,2-dione] | < 500 | –
3 | O=C(C(=O)N1CC2CN(Cc3ccccc3)CC2C1)c1c[nH]c2c(-n3ccnn3)ncc(F)c12 (stereo not shown) [Compound 2003] | > 500 | –
4 | COc1cnc(-n2cnc(C)n2)c2[nH]cc(C(=O)C(=O)N3CC4CN(C(=O)N(C)C)CC4C3)c12 (stereo not shown) [Compound 3002, 5-(2-(4-methoxy-7-(3-methyl-1H-1,2,4-triazol-1-yl)-1H-pyrrolo[2,3-c]pyridin-3-yl)-2-oxoacetyl)-N,N-dimethylhexahydropyrrolo[3,4-c]pyrrole-2(1H)-carboxamide] | < 500 | –
5 | COc1cnc(-n2cnc(C)n2)c2[nH]cc(C(=O)C(=O)N3CC4CN(Cc5ccccc5)CC4C3)c12 (stereo not shown) [Compound 2001] | < 500 | –
6 | COc1cnc(-n2cnc(C)n2)c2[nH]cc(C(=O)C(=O)N3CC4CN(c5nnnn5-c5ccccc5)CC4C3)c12 (stereo not shown) [Compound 1002, 1-(4-methoxy-7-(3-methyl-1H-1,2,4-triazol-1-yl)-1H-pyrrolo[2,3-c]pyridin-3-yl)-2-(5-(1-phenyl-1H-tetrazol-5-yl)hexahydropyrrolo[3,4-c]pyrrol-2(1H)-yl)ethane-1,2-dione] | < 500 | 1.41
7 | O=C(C(=O)N1CC2CN(C(=O)c3ccccc3)CC2C1)c1c[nH]c2c(-n3ccnn3)ncc(F)c12 (stereo not shown) [Compound 2005] | < 500 | –
8 | COc1cnc(-n2cnc(C)n2)c2[nH]cc(C(=O)C(=O)N3CC4CN(C(=O)c5ccccc5)CC4C3)c12 (stereo not shown) [Compound 2006] | < 500 | 0.68
